In patent US11576979B2, “Pyrrolobenzodiazepine prodrugs and antibody conjugates thereof” (GENENTECH, INC., priority 2016, dated 2023):
Where “and” joins values, the source holds several entries; their conditions need not be identical. Equal values may be shown once. Read-outs that look alike come from different tables or passages of the source.

Legend:
[1] = tested on: SK-BR-3; assay: CellTiter-Glo toxicity, 3 days (Example 7); assay type: cell-based; conditions: Homo sapiens, SK-BR-3, 72 h
Description: The toxicity of PBD monomer disulfide prodrugs 1 to 4, PBD dimer disulfide prodrugs 1 and 4, PBD monomer control 1 and PBD dimer control 1 were evaluated against SK-BR-3 cell cultures. […] The HER2-positive breast cancer cell line, SK-BR-3, was obtained internally at Genentech after having been verified by sequence analysis. The cells were grown at 37 Celsius in DMEM+10% FBS supplemented with 2 mM L-glutamine for the duration of this assay. On the first day of the experiment, designated “Day −1”, SK-BR-3 cells were harvested from tissue culture flasks, counted, and then seeded into 96-well plates at a concentration of 7,500 cells per well. The next day, designated “Day 0”, cell culture media was removed from the cells and replaced with 100 uL of fresh media containing a serial dilution (1:3) of the compounds in Table 5 below. The plates were then returned to the 37 Celsius incubator and allowed to incubate for 3 days. On “Day 3” of the assay, the plates were removed from the incubator and allowed to equilibrate to room temperature before adding 100 uL of room-temperature CellTiter-Glo reagent (Promega). The plates were then agitated at 300 rpm for 10 minutes. The luminescence signal generated from this reaction was recorded on an Envision plate reader (Perkin-Elmer). The data were arranged in Excel (Microsoft) and graphed in Kaleidagraph (Synergy Software).

[2] = tested on: double strand DNA Oligos 1 and 2; assay: DNA oligo binding, LC/MS/UV; conditions: 100 uM compound, 100 uM DNA, 1 hour, 37 C
Description: For DNA binding determination, the compounds were incubated at 100 μM with 100 μM double strand DNA Oligos 1 and 2 for 1 hour in 10 mM Bis-Tris, pH 7.1 at 37° C. The single strand DNA Oligos (5′-TATAGAATCTATA-3′ and 3′-ATATCTTAGATAT-5′) were synthesized at Genentech. The samples were analyzed by LC/MS/UV (210-450 nm) on Sciex TripleTOF 5600 on a Hypersil Gold C18 column (100×2.1, 1.9 Thermo Scientific). The column was eluted at 0.4 mL/min by a gradient of buffer A (50 mM hexafluoro-isopropanol and 15 mM diisopropylethylamine) to buffer B (50% A and 50% of 1:1 methanol:acetonitrile), 5% 0-0.5 min, 5-25% B 0.5-25 min, 25-95% B 25-40 min, and to 95% B 40-42 min. The % remaining was an average of the starting DNA oligos remaining in incubations (n=2). The products were characterized by LC/MS in a negative ESI ion mode.

[3] = tested on: UACC-257; assay: CellTiter-Glo toxicity, 4 days (Example 9); assay type: cell-based; conditions: Homo sapiens, UACC-257, 96 h, 4 days of drug incubation; Table 7A
Description: (§1) The toxicity of various PBD monomer disulfide prodrugs and PBD dimer disulfide prodrugs was evaluated on UACC-257, Igrov-1 and A2058 cell lines. Cells were seeded in 384-well plate and treated with drug 24 hours later. After 4 days of drug incubation, the cell viability was determined using Promega CellTiter-Glo luminescent reagent, which measures ATP level (an indirect measure of cell number). The luminescent intensity was measured on PerkinElmer Envision reader. The relative cell viability was calculated by normalizing to non-drug treatment control and was graphed using KleidaGraph software package. IC50 value was determined as the concentration to obtain 50% of the maximum cell killing.

[4] = tested on: Igrov-1; assay: CellTiter-Glo toxicity, 4 days (Example 9); assay type: cell-based; conditions: Homo sapiens, IGROV-1, 96 h, 4 days of drug incubation; Table 7A
Description: as §1

[5] = Disulfide cleavage by glutathione (GSH), LC/MS; assay type: physicochemical; conditions: 15 uM compound, 4 mM GSH, pH 7.0, 37 C
Description: (§2) For disulfide cleavage determination, the compounds were incubated at 15 μM with 0.2 mM cysteine or 4 mM GSH in 100 mM Tris buffer pH 7.0 containing 5% methanol at 37° C. Aliquots were taken at specified time points and the samples were analyzed by LC/MS on Sciex TripleTOF 5600 on a Hypersil Gold C18 column (100×2.1, 1.9 Thermo Scientific). The column was eluted by a gradient of buffer A (0.1% formic acid in 10 mM ammonium acetate) to buffer B (0.1% formic acid in 10 mM ammonium acetate in 90% acetonitrile), 5% B 0-0.5 min, 5-25% B 0.5-8 min, 25-75% B 8-13 min, and 75-95% B 13-13.5 min, 95% B 13.5-14.5 min, 95-5% B 14.5-15 min at 0.4 mL/min. All products were separated and characterized by LC/MS/MS in a positive ESI ion mode. All analytes had the protonated molecular MH+ as the major species with little source fragmentation. Full scan accurate mass peak areas were used to estimate relative abundance of each component.

[6] = tested on: KPL-4; assay: CELLTITER GLO cell proliferation assay (Example 6); assay type: cell-based; conditions: data in parenthesis = repeat evaluations
Description: (§3) The toxicity of PBD monomer disulfide prodrugs and diaphorase prodrugs were evaluated against KPL-4, WSU-DLCL2, HCT-116, HCC1395 and Jurkat cell cultures. […] KPL-4 cells further have a high expression of DTD on the order of about 839 nRPKM (where nRPKM refers to normalized reads per Kb of transcript length per million mapped read).
(§4) Potency of the disulfide and DT-diaphorase prodrugs was measured by a cell proliferation assay employing the following protocol (CELLTITER GLO™ Luminescent Cell Viability Assay, Promega Corp.). First, an aliquot of 40 ul of cell culture containing about 8000 cells of WSU-DLCL2 cells (low NQO1 gene and GSH level), 4000 cells of KPL-4 (high NQO1 gene and GSH level), HCT-116 cells, HCC1395 cells or Jurkat cells in RPMI-1640 culture medium (supplemented with 10% fetal bovine serum, 2 mM glutamine, 50 uM cystine, and 0.015 g/L L-methionine) was deposited in each well of a 384-well flat clear bottom white polystyrene tissue culture-treated microplates (Corning, N.Y.). Second, control wells were prepared containing medium with and without cells. Third, compounds with and without disulfide or DT-diaphorase prodrugs (n=3) were added to the experimental wells using ECHO acoustic liquid handling technology (Labcyte Inc, Sunnyvale, Calif.) to create a 10-point dose-response curve in triplicate with 1:3× serial dilution. Fourth, cells were cultured in a humidified incubator set at 37° C. and maintaining an atmosphere of 5% CO2. Fifth, the plates were equilibrated to room temperature for approximately 30 minutes. Sixth, a volume of CELLTITER GLO™ Reagent equal to the volume of cell culture medium present in each well was added. Seventh, the contents were mixed for 10 minutes on an orbital shaker in the dark to induce cell lysis. Eighth, the plate was incubated at room temperature for 30 minutes to stabilize the luminescence signal. Ninth, luminescence was recorded and reported in graphs as % activity where RLU (relative luminescence units) was normalized to controls (no compound control minus no cell control). Tenth, data was plotted as individual points for each replicate (n=3) for each antibody as the mean of luminescence for each set of replicates, with standard deviation error bars.

[7] = tested on: WSU-DLCL2; assay: CELLTITER GLO cell proliferation assay (Example 6); assay type: cell-based; conditions: Homo sapiens, data in parenthesis = repeat evaluations
Description: as §3, §4

[8] = tested on: A2058; assay: CellTiter-Glo toxicity, 4 days (Example 9); assay type: cell-based; conditions: Homo sapiens, A2058, 96 h, 4 days of drug incubation; Table 7A
Description: as §1

[9] = Disulfide cleavage by cysteine, LC/MS; assay type: physicochemical; conditions: 15 uM compound, 0.2 mM cysteine, pH 7.0, 37 C
Description: as §2

[10] = tested on: HCT-116; assay: CELLTITER GLO cell proliferation assay (Example 6); assay type: cell-based; conditions: Homo sapiens, HCT-116; Table 4; read-out: IC50 potency HCT-116
Description: as §3, §4

[11] = KPL4, read-out: IC50 potency KPL-4, Table 4
[12] = WSUDLCL2, read-out: IC50 potency WSU-DLCL2, Table 4

| SMILES | IC50 ([1]; 3 days, read-out: SK-BR-3 IC50) | % DNA oligo remaining [2] | IC50 [3] | IC50 [4] | % Remaining at 24 h by GSH [5] | IC50 ([1]; read-out: SK-BR-3 IC50 (nM)) | IC50 [6, 11] | IC50 [7, 12] | IC50 [8] | % Remaining at 24 h by Cys [9] | IC50 [10] | IC50 ([6]; KPL4, Table 4, read-out: IC50 potency KPL-4) | IC50 ([7]; WSUDLCL2, Table 4, read-out: IC50 potency WSU-DLCL2) |
| --- | --- | --- | --- | --- | --- | --- | --- | --- | --- | --- | --- | --- | --- |
| C=C1C[C@H]2C=Nc3cc(OCCCCCOc4cc5c(cc4OC)C(=O)N4CC(=C)C[C@H]4C(O)N5C(=O)OCC4(SSCC)CCC4)c(OC)cc3C(=O)N2C1 (stereo partly drawn) [PBD dimer disulfide prodrug 1] | 2.39 nM | >99.5% | 0.0022 µM | 0.00021 µM |  |  |  |  |  |  |  |  |  |
| C=C1C[C@H]2C(O)N(C(=O)OCCSSCC)c3cc(OC)c(OC)cc3C(=O)N2C1 (stereo partly drawn) [PBD monomer disulfide prodrug 1] |  |  | 0.276 µM | 0.123 µM | 0.5% | 331 nM | 0.324 µM | 0.274 µM | 0.0829 µM | 17.9% |  |  |  |
| C=C1C[C@H]2C(O)N(C(=O)OCC(C)(C)SSC(C)(C)C)c3cc(OC)c(OC)cc3C(=O)N2C1 (stereo partly drawn) [PBD monomer disulfide prodrug 4] |  |  | 19.2 µM | 12.6 µM | 99.9% | > 10000 nM | > 10 µM | > 10 µM | 8.11 µM | 99.9% |  |  |  |
| C=C1C[C@H]2C(O)N(C(=O)OCC3(SSCC)CCC3)c3cc(OCCCCCOc4cc5c(cc4OC)C(=O)N4CC(=C)C[C@H]4C(O)N5C(=O)OCC4(SSCC)CCC4)c(OC)cc3C(=O)N2C1 (stereo partly drawn) [PBD dimer disulfide prodrug 4] |  |  | 0.0078 µM | 0.0025 µM |  | 3.09 nM |  |  |  |  |  |  |  |
| C=C1C[C@H]2C=Nc3cc(OCCCCCOc4cc5c(cc4OC)C(=O)N4CC(=C)C[C@H]4C(O)N5C(=O)OCc4cn(C)c5c4C(=O)C(OC)=CC5=O)c(OC)cc3C(=O)N2C1 (stereo partly drawn) [PBD dimer diaphorase prodrug 3] |  |  |  |  |  |  |  |  |  |  | 0.00123 µM | 0.00187 µM | 0.00024 µM |
| C=C1C[C@H]2C(O)N(C(=O)OCC3(SSCC)CCC3)c3cc(OC)c(OC)cc3C(=O)N2C1 (stereo partly drawn) [PBD monomer disulfide prodrug 3] |  |  | 0.356 µM | 0.254 µM | 2.90% | 616 nM | 0.36 µM | 0.531 µM | 0.0752 µM | 73.5% |  |  |  |
| C=C1C[C@H]2C(O)N(C(=O)OCCSSC(C)C)c3cc(OC)c(OC)cc3C(=O)N2C1 (stereo partly drawn) [PBD monomer disulfide prodrug 2] |  |  | 1.86 µM | 1.87 µM | 0.4% and 0% | 1760 nM | 0.497 µM | 1.02 µM | 0.635 µM | 77.6% |  |  |  |
